Some test systems named below: CCRF-CEM leukemia; ACHN renal; SF-539 CNS; SK-MEL-28 melanoma; NCI-H23 lung; NCI-H460 lung; LOX IMVI melanoma; SW-620 colon; SF-268 CNS; NCI/ADR-RES ovarian.
Common to all, as to test: DTP human tumour cell line panel, 48 h

“And” between values parts separate entries of the source, which are not always exact repeats. Identical values can stand only once.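 These data come from cells grown in 96-well plates and exposed to compound for 48 hours at five concentrations. GI50 marks 50% less growth. TGI marks complete inhibition of growth.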 A value given as a limit tells only on which side of the number the result lay.

Usually TGI stands for the concentration giving total growth inhibition. What is called GI50 is the concentration that inhibits growth by half.

Regarding `N/C=N/S(=O)(=O)c1ccc(NC(=O)COC(=O)c2cccc3c(=O)c4ccccc4[nH]c23)cc1`, the TGI in the experiment with CCRF-CEM leukemia, with ACHN renal, in the experiment on SF-539 CNS, in the experiment on SK-MEL-28 melanoma, in the experiment on NCI-H23 lung and in the experiment with NCI-H460 lung was above 100 µM throughout. Also, the TGI in the experiment on LOX IMVI melanoma and with SW-620 colon was above 100 µM throughout.

On to `CCc1ccccc1NC(=O)C(=O)C(C#N)c1ccccc1Cl` (stereo not given), for which the concentration for total growth inhibition (TGI) was above 100 µM in the experiment with CCRF-CEM leukemia; above 100 µM in the experiment on SF-268 CNS; above 100 µM in the experiment on ACHN renal; above 100 µM in the experiment on SK-MEL-28 melanoma; above 100 µM with NCI-H23 lung; 33.1 µM with NCI-H460 lung. Further, the total growth inhibition concentration (TGI) in the experiment with LOX IMVI melanoma was 10.9 µM; in the experiment on SW-620 colon, above 100 µM.

Turning to `CC(=O)OCC12CN(C#N)C3C4COC(CC41)C1(C(=O)N(C)c4ccccc41)C32` (stereo not given), the TGI is 53 µM in the experiment with CCRF-CEM leukemia; above 100 µM in the experiment with SF-268 CNS; 38 µM in the experiment with ACHN renal; 62.9 µM with SK-MEL-28 melanoma; 44.6 µM in the experiment on NCI-H23 lung; 94.5 µM in the experiment on NCI-H460 lung. Further, the TGI in the experiment with LOX IMVI melanoma came out at 49.1 µM; in the experiment on SW-620 colon it was 59.6 µM; in the experiment on NCI/ADR-RES ovarian it was 95.8 µM.

For the molecule `O=C(Cc1ccccc1[N+](=O)[O-])C(CO)c1ccccc1[N+](=O)[O-]` (stereo not given), the total growth inhibition concentration (TGI) in the experiment with CCRF-CEM leukemia, in the experiment with SF-268 CNS, with ACHN renal, with SF-539 CNS, in the experiment with SK-MEL-28 melanoma and with NCI-H23 lung was above 100 µM each time. The total growth inhibition concentration (TGI) in the experiment with NCI-H460 lung, in the experiment with LOX IMVI melanoma and in the experiment with SW-620 colon was above 100 µM each time.

Consider `O=C(C=Nc1ccccc1C(=O)[O-])c1cccs1.O=C(C=Nc1ccccc1C(=O)[O-])c1cccs1.[Ni+2]`, for which the TGI in the experiment with CCRF-CEM leukemia, with SF-268 CNS, in the experiment on ACHN renal, with SF-539 CNS, in the experiment on SK-MEL-28 melanoma and with NCI-H23 lung was above 100 µM in each case. Further, the TGI in the experiment on NCI-H460 lung, in the experiment on LOX IMVI melanoma and in the experiment with SW-620 colon was above 100 µM each time.

For the molecule `COC(=O)C1CSC(c2csc(CCN)n2)=N1` (stereo not given), the concentration for total growth inhibition (TGI) in the experiment with CCRF-CEM leukemia, in the experiment with ACHN renal, with SK-MEL-28 melanoma, with NCI-H23 lung, in the experiment on NCI-H460 lung and with LOX IMVI melanoma was above 100 µM in each case. Besides, the TGI in the experiment with SW-620 colon is above 100 µM.

As for `COC(=O)Cc1c([C@@]2(C)CCCC(C)(C)C2)ccc2c1C(=O)OC2`, the total growth inhibition concentration (TGI) with CCRF-CEM leukemia is 22.2 µM; with ACHN renal, 48.2 µM; with SF-539 CNS, 31.6 µM; in the experiment with SK-MEL-28 melanoma it was 34.9 µM; in the experiment on NCI-H23 lung, 34.6 µM; in the experiment with NCI-H460 lung, 33.3 µM. The values for the concentration for total growth inhibition (TGI) with LOX IMVI melanoma and in the experiment with SW-620 colon were 24.2 µM and above 100 µM, respectively.

With `Nc1nc(N)c(CCCCc2ccccc2)c(C=O)n1`, the TGI was 40.1 µM in the experiment on CCRF-CEM leukemia; 43.3 µM in the experiment with SF-268 CNS; 51.6 µM with ACHN renal; 36.3 µM in the experiment with SF-539 CNS; 32.3 µM with SK-MEL-28 melanoma; 41.3 µM in the experiment with NCI-H23 lung. In addition, the values for the TGI in the experiment with NCI-H460 lung, in the experiment on LOX IMVI melanoma and with SW-620 colon were above 100 µM, 32.8 µM and 30.9 µM, respectively.

Consider `O=C1/C(=C/c2ccc([N+](=O)[O-])s2)Oc2cc(Cl)ccc21`, for which the 50% growth inhibitory concentration (GI50) is 0.325 µM with CCRF-CEM leukemia; 0.475 µM with ACHN renal; 1.84 µM with NCI-H460 lung; 0.217 µM with SW-620 colon; 3.02 µM with NCI/ADR-RES ovarian. Also, the TGI in the experiment on CCRF-CEM leukemia was 1.48 µM; with ACHN renal, 1.84 µM; in the experiment on NCI-H460 lung, above 100 µM; in the experiment with SW-620 colon, 0.524 µM; in the experiment with NCI/ADR-RES ovarian it was above 100 µM.

On to `NC1N=Nc2ccccc21` (stereo not given), for which the total growth inhibition concentration (TGI) in the experiment with CCRF-CEM leukemia, in the experiment on SF-268 CNS, in the experiment with ACHN renal, in the experiment on SF-539 CNS, in the experiment with SK-MEL-28 melanoma and with NCI-H23 lung was above 100 µM throughout. For the same molecule, the TGI in the experiment on NCI-H460 lung, in the experiment with LOX IMVI melanoma and with SW-620 colon was above 100 µM throughout.

Take `COc1cc2c(c(O)c1Cl)C(=O)c1c(O)cc(C[C@H](C)O)cc1[C@H]2[C@H]1c2cc(C[C@H](C)O)cc(O)c2C(=O)c2c1cc(OC)c(Cl)c2O`: the concentration for total growth inhibition (TGI) is 75 µM and > 100 µM in the experiment with CCRF-CEM leukemia; 75 µM and > 100 µM with SF-268 CNS; 75 µM and > 100 µM with SK-MEL-28 melanoma; 75 µM and 84.6 µM with NCI-H23 lung; 17.7 µM and 52.1 µM in the experiment on NCI-H460 lung; 13.2 µM and > 100 µM with LOX IMVI melanoma. The total growth inhibition concentration (TGI) in the experiment on SW-620 colon was 75 µM and > 100 µM; in the experiment on NCI/ADR-RES ovarian, 75 µM and > 100 µM. Moreover, the GI50 was 3.36 µM and 31.5 µM in the experiment on SF-268 CNS; 54.8 µM and 58.8 µM in the experiment on NCI/ADR-RES ovarian.

For the molecule `COc1cccc(C=O)c1C(=O)c1cc(O)ccc1O`, the TGI in the experiment on CCRF-CEM leukemia was 80.2 µM; in the experiment on SF-268 CNS, above 55.4 µM; in the experiment on ACHN renal it was 31.1 µM; in the experiment on SF-539 CNS, above 100 µM; in the experiment with SK-MEL-28 melanoma, above 61.4 µM; with NCI-H23 lung it was above 100 µM. The concentration for total growth inhibition (TGI) in the experiment with NCI-H460 lung was above 100 µM; with LOX IMVI melanoma it was above 74 µM; in the experiment on SW-620 colon it was 33.2 µM.

`O=C1C(=c2ccc(=C3C(=O)c4ccc([N+](=O)[O-])cc4[N+]3=O)cc2)N([O-])c2cc([N+](=O)[O-])ccc21`: the GI50 in the experiment with CCRF-CEM leukemia, in the experiment on ACHN renal, with SF-539 CNS, in the experiment on SK-MEL-28 melanoma, in the experiment with NCI-H23 lung and in the experiment with NCI-H460 lung was above 100 µM throughout. In addition, the GI50 in the experiment on LOX IMVI melanoma and with SW-620 colon was above 100 µM in each case. Further, the TGI in the experiment on CCRF-CEM leukemia, in the experiment on ACHN renal, in the experiment on SF-539 CNS, with SK-MEL-28 melanoma, in the experiment with NCI-H23 lung and in the experiment on NCI-H460 lung was above 100 µM in each case. The concentration for total growth inhibition (TGI) in the experiment on LOX IMVI melanoma and with SW-620 colon was above 100 µM throughout.

Consider `O=C(CCC(=O)Nc1ccc(Cl)c(Cl)c1)CC(=O)c1ccc2ccccc2c1`, for which the TGI with CCRF-CEM leukemia, in the experiment on SF-268 CNS, with ACHN renal, with SF-539 CNS, with SK-MEL-28 melanoma and in the experiment with NCI-H23 lung was above 100 µM each time. Besides, the TGI with NCI-H460 lung, with LOX IMVI melanoma and in the experiment with SW-620 colon was above 100 µM throughout.

These data come from PubChem BioAssay (NCI).
